# Results reported in US20260130928A1, “COMBINATION OF AKR1C3 ACTIVATED ANTICANCER PRODRUG COMPOUND AND ANALGESIC DRUG FOR TREATING CANCER PATIENTS ACCOMPANIED BY PAIN” (ASCENTAWITS PHARMACEUTICALS, LTD., priority 2022, published 2026).
# Key:
# H460 cell line [1] = assay: In vitro cell proliferation inhibition with the drug combination (CTG method); format: cell-based, human; details: for IC50: Homo sapiens
# Protocol: • a) H460 cells (human non-small lung cancer cells, AKR1C3 enzyme highly expressed) were cultured in RPMI-1640 medium, added with 10% FBS and 1% double antibody, and placed at 37° C. and 5% CO2 for culturing.
# • a) The cells were routinely cultured until the cell saturation was 80%-90%, and when the required quantity was reached, the cells were collected. • b) The cells were resuspended with the corresponding medium and cell counts were performed to prepare a cell suspension with appropriate density. • c) The cell suspension was added to a 96-well plate with 100 μL per well, and the cell density was 2,000 cells per well. • d) The cells were incubated overnight in an incubator at 37° C. with 5% CO2. 1.1.3 Treating Cells with Compound (72 Hours)
# AST-3424 alone: after 24 hours of cell seeding, AST-3424 was administered alone. Specifically, each well was supplemented with 99 μL of growth medium, and then added with 1 μL of the prepared AST-3424 solution to form different concentrations of AST-3424. The plate was shaken gently to ensure uniform mixing, and placed in an incubator at 37° C. with 5% CO2.
# The cell plates were placed in the incubator for 72 hours.
# 1.1.4 Treating Cells with Compound (2 Hours) • a) Administrating single drug: after 24 hours of cell seeding, AST-3424 was administered alone. Specifically, each well was supplemented with 99 μL of growth medium, and then added with 1 μL of the prepared AST-3424 solution to form different concentrations of AST-3424. The plate was shaken gently to ensure uniform mixing, and placed in the incubator for 2 hours. […] The plate was shaken gently to ensure uniform mixing. After the plate was placed in the incubator for 2 hours, 1 μL of the prepared AST-3424 solution was added to form different concentrations of AST-3424. The plate was shaken gently to ensure uniform mixing, and placed in the incubator at 37° C. with 5% CO2 for another 2 hours. Then, the supernatant was discarded, and the remainder was washed twice with growth medium and added with 200 μL of fresh medium.
# 1.1.6 Detecting with CTG Method • a) The cell plate to be tested was placed at room temperature to equilibrium for 30 minutes, and 100 μL of culture medium was discarded from each well. • b) 25 μL CTG reagent (CelltiterGlo kit) was added to each well. The plate was placed on a fast shaker to shake for 2 minutes, and then placed at room temperature away from light for 30 minutes. • c) The chemiluminescent signal value was read with multifunctional microplate reader at reading time of 1000 ms.
# IC50 was calculated with GraphPad Prism 5 software, and the IC50 (half maximal inhibitory concentration) of the compound was obtained using the following nonlinear fitting formula: […]
# H460 cell line [2] = assay: Cell proliferation inhibition by combining Naproxen or TH-3021 and AST-3424 in different sequence of administration (CTG); format: cell-based, human; details: Homo sapiens, AST-3424 alone 2 h as reference, H460
# Protocol: The following are the different treatment methods. […] The plate was shaken gently to ensure uniform mixing, and placed in the incubator for 2 hours. […] The plate was shaken gently to ensure uniform mixing, and placed in the incubator for 2 hours. Subsequently, the plate was washed to remove the compound, and placed in the incubator at 37° C. with 5% CO2 for further 72 hours. […] The plate was shaken gently to ensure uniform mixing, and placed in the incubator for 2 hours. Subsequently, the plate was washed to remove the compounds, and placed in the incubator at 37° C. with 5% CO2 for 72 hours. […] The plate was shaken gently to ensure uniform mixing, and placed in the incubator for 2 hours. […] The plate was shaken gently to ensure uniform mixing, and placed in the incubator for 2 hours. Subsequently, the plate was washed to remove the compounds, and placed in the incubator at 37° C. with 5% CO2 for further 72 hours. […] The plate was shaken gently to ensure uniform mixing, and placed in the incubator for 2 hours. […] The plate was shaken gently to ensure uniform mixing, and placed in the incubator for 2 hours. Subsequently, the plate was washed to remove the compounds, and placed in the incubator at 37° C. with 5% CO2 for further 72 hours. b) Administrating single drug: after 24 hours of cell seeding, the compound was administered alone. […] The plate was shaken gently to ensure uniform mixing, and placed in the incubator at 37° C. with 5% CO2 for 2 hours. Subsequently, the compound was washed off, and each well was added with fresh medium. The plate was placed in the incubator at 37° C. with 5% CO2 for further 72 hours.
# [3] = system: human lung cancer NCI-H460; assay: Pharmacodynamics in subcutaneous xenograft model of human lung cancer NCI-H460 (tumor volume, TGI); format: in vivo, BALB/c nude mice; details: Group 7: AST-3424 2.5 mg/kg QW×3 i.v.
# Protocol: Measures of pharmacodynamics of AST-3424 monotherapy and combination therapy with Celecoxib were performed in a subcutaneous xenograft model of human lung cancer NCI-H460 established by using female BALB/c nude mice.
# After the inoculation of tumor cell, tumor growth was routinely monitored, and tumor volume and mouse weight were measured. Evaluation of therapeutic efficiency was based on the relative tumor growth inhibition TGI (%). The specific results are shown in Table 3 and FIG. 3, and the Pharmacodynamics analysis data on Day 30 after inoculation (at the end of drug administration) are particularly given in Table 4.
# [4] = Body weight / tolerance of mice in the human lung cancer NCI-H460 model
# Protocol: BALB/c nude mice were subcutaneously inoculated with human lung cancer NCI-H460 cells to establish the subcutaneous transplant tumor model of human lung cancer. The experiment was assigned to seven groups, with 5 mice in each group: the test drug Celecoxib 50 mg/kg and 100 mg/kg groups, the AST-3424 2.5 mg/kg group, and different combination therapy groups of Celecoxib 50 mg/kg or 100 mg/kg and AST-3424 2.5 mg/kg, and the 0.5% sodium carboxymethylcellulose vehicle control group. […] The AST-3424 2.5 mg/kg group was administered by tail vein injection once a week for a total of three weeks, and observed for 7 days. In the combination therapy groups of Celecoxib 50 mg/kg or 100 mg/kg and AST-3424 2.5 mg/kg, Celecoxib was administered by gavage once a day for a total of 15 days, and AST-3424 was administered by tail vein injection once a week for a total of three weeks, and observed for 7 days.
# [5] = Group 7: AST-3424 2.5 mg/kg QW×3 i.v., Day 37 after the inoculation of tumor cell
compound,measurement,setting,value
C[C@H](OP(=O)(N1CC1)N1CC1)c1ccc([N+](=O)[O-])c(Oc2cccc(C(=O)N(C)C)c2)c1 [AST-3424],IC50,"H460 cell line [1]; NCI-H460, AST-3424 alone, read-out: IC50(nM) -TH-3021",0.97 nM
same,IC50,"H460 cell line [1]; NCI-H460, read-out: IC50(nM) +3 μM TH-3021, +3 μM TH-3021 (2 h pre-incubation, then 2 h with AST-3424)",360 nM
same,Inhibition factor,H460 cell line [1]; IC50 +3 μM TH-3021 vs AST-3424 alone,371.65
same,IC50,"H460 cell line [2]; NCI-H460, 2 h, Group 2: TH-3021 3 μM or Naproxen 400 μM + AST-3424 2 h simultaneously",1.08 nM
same,IC50,"H460 cell line [2]; NCI-H460, Group 1: TH-3021 3 μM or Naproxen 400 μM 2 h pretreatment, washed off, then AST-3424 2 h",0.88 nM
same,IC50,"H460 cell line [2]; NCI-H460, Group 3: AST-3424 2 h pretreatment, washed off, then TH-3021 3 μM or Naproxen 400 μM 2 h",1 nM
same,IC50,"H460 cell line [2]; NCI-H460, Group 4: TH-3021 3 μM or Naproxen 400 μM 2 h pretreatment, not washed off, AST-3424 2 h cotreatment",1.14 nM
same,Tumor volume (x ± S),[3]; Day 9 after cell inoculation,144.01 ± 11.36 mm^3
same,Tumor volume (x ± S),[3]; Day 12 after cell inoculation,164.28 ± 17.97 mm^3
same,Tumor volume (x ± S),[3]; Day 16 after cell inoculation,166.22 ± 18.81 mm^3
same,Tumor volume (x ± S),[3]; Day 19 after cell inoculation,209.80 ± 41.43 mm^3
same,Tumor volume (x ± S),[3]; Day 23 after cell inoculation,208.60 ± 43.27 mm^3
same,Tumor volume (x ± S),[3]; Day 26 after cell inoculation,291.82 ± 67.06 mm^3
same,Tumor volume (x ± S),[3]; Day 30 after cell inoculation,327.47 ± 85.10 mm^3
same,Relative tumor volume (x ± S),[3]; Day 30 after inoculation,2.19 ± 0.41
same,T/C (%),[3]; Day 30 after inoculation,39.25%
same,TGI (%),"[3]; Day 30 after inoculation, 2.5 mg/kg",60.75%
same,Tumor volume (x ± S),"[3]; Day 30 after inoculation, in mm³",327.47 ± 85.10
same,Tumor volume (x ± S),[3]; Day 33 after cell inoculation,348.83 ± 90.34 mm^3
same,Tumor volume (x ± S),[3]; Day 37 after cell inoculation,439.52 ± 142.78 mm^3
same,Mean body weight g (x ± S),"[4]; Group 7: AST-3424 2.5 mg/kg QW×3 i.v., Day 9 after the inoculation of tumor cell",25.6 ± 0.7 g
same,Change of body weight (%),[4]; [5],−11.74%
same,Mean body weight g (x ± S),[4]; [5],22.5 ± 0.5 g
same,tolerance of mice,[4]; NCI-H460 model,good tolerance
